The results in this text go back to patent US20240199618A1, “NOVEL N-ACYL-[3-SUBSTITUTED]-[8-SUBSTITUTED]-5,6-DIHYDRO-[1,2,4]TRIAZOLO[4,3-a]PYRAZINES AS SELECTIVE NK-3 RECEPTOR ANTAGONISTS, PHARMACEUTICAL COMPOSITION, METHODS FOR USE IN NK-3 RECEPTOR-MEDIATED DISORDERS” (Ogeda SA, priority 2013, published 2024).

Molecules are shown by their SMILES. Like-named read-outs stand apart in the source and are kept apart here.

Usually Ki stands for the equilibrium dissociation constant of an inhibitor or competing ligand from its target.

The test deals with human NK-3 receptor (Homo sapiens (Human), UniProt P29371). The test can be described thus: 3H-SB222200 binding competition assay with human NK-3 receptor. The method, boiled down: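 Membranes from CHO cells stably expressing the receptor were incubated with 5 nM 3H-SB222200 and varying compound concentrations in HEPES 25 mM/NaCl 0.1 M/CaCl2 1 mM/MgCl2 5 mM/BSA 0.5%/saponin 10 μg/ml, pH 7.4. Bound radioligand was quantified as membrane-associated radioactivity after filtration.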
Chain of human NK-3 receptor (P29371 whole entry): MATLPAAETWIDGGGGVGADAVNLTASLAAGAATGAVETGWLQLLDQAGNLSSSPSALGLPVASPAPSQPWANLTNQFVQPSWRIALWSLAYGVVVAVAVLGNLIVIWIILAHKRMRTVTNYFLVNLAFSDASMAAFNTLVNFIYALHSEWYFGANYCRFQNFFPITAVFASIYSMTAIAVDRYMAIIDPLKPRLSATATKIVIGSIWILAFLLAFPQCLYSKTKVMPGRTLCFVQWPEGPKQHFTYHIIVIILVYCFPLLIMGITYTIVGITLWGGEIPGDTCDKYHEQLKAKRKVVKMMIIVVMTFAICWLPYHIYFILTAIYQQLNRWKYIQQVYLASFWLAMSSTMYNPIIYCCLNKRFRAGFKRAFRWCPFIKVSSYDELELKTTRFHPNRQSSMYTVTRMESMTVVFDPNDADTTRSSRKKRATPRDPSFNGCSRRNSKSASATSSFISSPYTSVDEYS

Consider `Cc1nsc(-c2nnc3n2CCN(C(=O)c2ccc(F)cc2)[C@@H]3C)n1` [Compound 5, (R)-(4-fluorophenyl)(8-methyl-3-(3-methyl-1,2,4-thiadiazol-5-yl)-5,6-dihydro-[1,2,4]triazolo[4,3-a]pyrazin-7(8H)-yl)methanone], for which the Ki (Table 2, 5 nM 3H-SB222200, CHO membranes, read-out: Competitive binding assay with human NK-3 receptor hNK-3 (Ki)) was determined as 0.023 µM and the Ki (Table 3 (selectivity table), read-out: hNK-3 (Ki)) worked out at 0.023 µM.
